“And” between values parts separate entries of the source, which are not always exact repeats. Equal values may be shown once.
Test system: thromboxane A2 challenged PAH-minipig
Assay: Haemodynamics in the anesthetized thromboxane challenged minipig, intratracheal dry powder (PAP, BP)
Type: in vivo, Göttingen Minipigs
Conditions: for BP (absolute values) / PAP (absolute values): lactose vehicle first, test powder 1.5 mg/4 kg i.t. @90 min, each animal (n=3); for % changes vs. baseline on PAP: baseline 100.0 at 80 min, i.t. dry powder, each animal
Protocol: Healthy Göttingen Minipigs® Ellegaard (Ellegaard, Denmark) of both sexes and having a weight of 2-6 kg were used. The animals were sedated by i.m. administration of about 25 mg/kg ketamine and about 10 mg/kg azaperone. Anaesthesia was initiated by i.v. administration of about 2 mg/kg ketamine and about 0.3 mg/kg midazolam. Maintenance of anaesthesia was by i.v. administration of about 7.5-30 mg/kg/h ketamine and about 1-4 mg/kg/h midazolam (rate of infusion 1-4 ml/kg/h) and about 150 μg/kg/h pancuronium bromide (for example Pancuronium-Actavis). After intubation, the animals were ventilated by the ventilator at a constant respiratory volume (10-12 ml/kg, 35 breaths/min; Avea®, Viasys Healthcare, USA, or Engström Carestation, GE Healthcare, Freiburg, Germany) such that an end-tidal CO2 concentration of about 5% was achieved. Ventilation was performed with room air, enriched with about 40% oxygen (normoxia). For the measurement of the haemodynamic parameters such as pulmonary arterial pressure (PAP), blood pressure (BP) and heart rate (HR), catheters were inserted into the carotid artery to measure the blood pressure, and a Swan-Ganz® catheter was introduced in a flow-directed manner via the jugular vein into the pulmonary artery. The haemodynamic signals were recorded and evaluated by means of pressure transducers (Combitransducer, B. Braun, Melsungen, Germany)/amplifiers and Ponemah® as data acquisition software.
As reference pure Lactose vehicle was applied in the beginning of each experiment.

[1] = time 150 min, listed as ex. 6e, sesquihydrate
[2] = time 160 min, listed as ex. 6e, sesquihydrate
[3] = time 170 min, listed as ex. 6e, sesquihydrate
[4] = time 180 min, listed as ex. 6e, sesquihydrate
[5] = time 190 min, listed as ex. 6e, sesquihydrate
[6] = time 200 min, listed as ex. 6e, sesquihydrate
[7] = time 210 min, listed as ex. 6e, sesquihydrate
[8] = time 220 min, listed as ex. 6e, sesquihydrate
[9] = time 230 min, listed as ex. 6e, sesquihydrate
[10] = time 240 min, listed as ex. 6e, sesquihydrate
[11] = time 250 min, listed as ex. 6e, sesquihydrate
[12] = time 260 min, listed as ex. 6e, sesquihydrate
[13] = time 270 min, listed as ex. 6e, sesquihydrate
[14] = time 280 min, listed as ex. 6e, sesquihydrate
[15] = time 290 min, listed as ex. 6e, sesquihydrate
[16] = time 300 min, listed as ex. 6e, sesquihydrate
[17] = time 310 min, listed as ex. 6e, sesquihydrate
[18] = time not given, 1st row after 310 min, listed as ex. 6e, sesquihydrate
[19] = time not given, 2nd row after 310 min, listed as ex. 6e, sesquihydrate
[20] = time −10 min, 375 μg/kg i.t., sesquihydrate

Structure (SMILES): O.O.O.O=C(O)c1ccc(CCN(CCc2ccccc2OCc2ccc(-c3ccc(C(F)(F)F)cc3)cc2Cl)[C@H]2CCCc3nc(C(=O)O)ccc32)cc1.O=C(O)c1ccc(CCN(CCc2ccccc2OCc2ccc(-c3ccc(C(F)(F)F)cc3)cc2Cl)[C@H]2CCCc3nc(C(=O)O)ccc32)cc1 [example 6e, (5S)—{[2-(4-Carboxyphenyl)ethyl][2-(2-{[3-chloro-4′-(trifluoromethyl)biphenyl-4-yl]methoxy}phenyl)-ethyl]amino}-5,6,7,8-tetrahydroquinoline-2-carboxylic acid sesquihydrate]
- BP (absolute values) (time 150 min): 99 mmHg
- BP (absolute values) [1]: 121 mmHg and 114 mmHg
- PAP (absolute values) [1]: 30.3 mmHg and 29.0 mmHg and 26.6 mmHg
- % changes vs. baseline on PAP (time 160 min, sesquihydrate): 71.0% and 79.5% and 65.9%
- BP (absolute values) (time 160 min): 100 mmHg
- BP (absolute values) [2]: 122 mmHg and 114 mmHg
- PAP (absolute values) [2]: 29.0 mmHg and 30.3 mmHg and 26.9 mmHg
- % changes vs. baseline on PAP (time 170 min, sesquihydrate): 68.5% and 74.3% and 61.5%
- BP (absolute values) [3]: 101 mmHg and 121 mmHg and 115 mmHg
- PAP (absolute values) [3]: 28.0 mmHg and 28.3 mmHg and 25.1 mmHg
- % changes vs. baseline on PAP (time 180 min, sesquihydrate): 63.2% and 80.8% and 62.0%
- BP (absolute values) (time 180 min): 99 mmHg
- BP (absolute values) [4]: 119 mmHg and 115 mmHg
- PAP (absolute values) [4]: 25.8 mmHg and 30.8 mmHg and 25.3 mmHg
- % changes vs. baseline on PAP (time 190 min, sesquihydrate): 61.5% and 80.8% and 58.6%
- BP (absolute values) (time 190 min): 99 mmHg
- BP (absolute values) [5]: 123 mmHg and 114 mmHg
- PAP (absolute values) [5]: 30.8 mmHg and 23.9 mmHg
- % changes vs. baseline on PAP (time 200 min, sesquihydrate): 62.3% and 80.3% and 60.2%
- BP (absolute values) (time 200 min): 98 mmHg
- BP (absolute values) [6]: 116 mmHg and 113 mmHg
- PAP (absolute values) [6]: 25.5 mmHg and 30.6 mmHg and 24.6 mmHg
- % changes vs. baseline on PAP (time 210 min, sesquihydrate): 61.0% and 80.7% and 59.4%
- BP (absolute values) (time 210 min): 99 mmHg
- BP (absolute values) [7]: 117 mmHg and 116 mmHg
- PAP (absolute values) [7]: 25.0 mmHg and 30.8 mmHg and 24.2 mmHg
- % changes vs. baseline on PAP (time 220 min, sesquihydrate): 59.5% and 86.3% and 57.8%
- BP (absolute values) (time 220 min): 97 mmHg
- BP (absolute values) [8]: 123 mmHg and 114 mmHg
- PAP (absolute values) [8]: 24.3 mmHg and 32.9 mmHg and 23.6 mmHg
- % changes vs. baseline on PAP (time 230 min, sesquihydrate): 58.6% and 82.6% and 57.8%
- BP (absolute values) (time 230 min): 97 mmHg
- BP (absolute values) [9]: 119 mmHg and 114 mmHg
- PAP (absolute values) [9]: 24.0 mmHg and 31.5 mmHg and 23.6 mmHg
- % changes vs. baseline on PAP (time 240 min, sesquihydrate): 59.3% and 81.5% and 57.6%
- BP (absolute values) (time 240 min): 97 mmHg
- BP (absolute values) [10]: 119 mmHg and 112 mmHg
- PAP (absolute values) [10]: 24.3 mmHg and 31.0 mmHg and 23.5 mmHg
- % changes vs. baseline on PAP (time 250 min, sesquihydrate): 59.3% and 82.2% and 56.1%
- BP (absolute values) (time 250 min): 97 mmHg
- BP (absolute values) [11]: 118 mmHg and 111 mmHg
- PAP (absolute values) [11]: 24.2 mmHg and 31.3 mmHg and 22.9 mmHg
- % changes vs. baseline on PAP (time 260 min, sesquihydrate): 58.8% and 82.7% and 57.6%
- BP (absolute values) (time 260 min): 96 mmHg
- BP (absolute values) [12]: 116 mmHg and 112 mmHg
- PAP (absolute values) [12]: 24.0 mmHg and 31.5 mmHg and 23.5 mmHg
- % changes vs. baseline on PAP (time 270 min, sesquihydrate): 59.9% and 78.3% and 55.4%
- BP (absolute values) (time 270 min): 99 mmHg
- BP (absolute values) [13]: 115 mmHg and 109 mmHg
- PAP (absolute values) [13]: 24.5 mmHg and 29.8 mmHg and 22.6 mmHg
- % changes vs. baseline on PAP (time 280 min, sesquihydrate): 58.4% and 78.3% and 55.9%
- BP (absolute values) [14]: 97 mmHg and 111 mmHg and 110 mmHg
- PAP (absolute values) [14]: 23.9 mmHg and 29.8 mmHg and 22.8 mmHg
- % changes vs. baseline on PAP (time 290 min, sesquihydrate): 57.4% and 79.6% and 53.9%
- BP (absolute values) [15]: 97 mmHg and 110 mmHg and 107 mmHg
- PAP (absolute values) [15]: 23.5 mmHg and 30.3 mmHg and 22.0 mmHg
- % changes vs. baseline on PAP (time 300 min, sesquihydrate): 60.1% and 78.7% and 54.5%
- BP (absolute values) (time 300 min): 98 mmHg
- BP (absolute values) [16]: 109 mmHg and 108 mmHg
- PAP (absolute values) [16]: 24.6 mmHg and 30.0 mmHg and 22.2 mmHg
- % changes vs. baseline on PAP (time 310 min, sesquihydrate): 58.4% and 77.6% and 53.7%
- BP (absolute values) (time 310 min): 97 mmHg
- BP (absolute values) [17]: 109 mmHg and 105 mmHg
- PAP (absolute values) [17]: 23.9 mmHg and 29.6 mmHg and 21.9 mmHg
- % changes vs. baseline on PAP (time 320 min, sesquihydrate): 61.8% and 76.3% and 55.1%
- % changes vs. baseline on PAP (time 330 min, sesquihydrate): 61.3% and 74.8% and 53.0%
- BP (absolute values) (time not given, 1st row after 310 min): 94 mmHg
- BP (absolute values) [18]: 108 mmHg and 105 mmHg
- PAP (absolute values) [18]: 25.3 mmHg and 29.1 mmHg and 22.5 mmHg
- BP (absolute values) (time not given, 2nd row after 310 min): 97 mmHg
- BP (absolute values) [19]: 108 mmHg and 105 mmHg
- PAP (absolute values) [19]: 25.1 mmHg and 28.5 mmHg and 21.6 mmHg
- BP (mean) (time −10 min, 375 μg/kg i.t.): 99 mmHg
- BP (mean) [20]: 107 mmHg and 119 mmHg
- PAP(mean) [20]: 42.0 mmHg and 36.4 mmHg and 37.5 mmHg

Source: patent US12202805B2, “Process for preparing (5S)-{[2-(4-carboxyphenyl)ethyl] |2-(2-{|3-chloro-4'-(trifluoromethyl)biphenyl-4-yl]methoxy}phenyl)ethyl]aminol-5,6,7,8-tetrahydroquinoline-2-carboxylic acid and its crystalline forms for use as pharmaceutically active compound” (Bayer Aktiengesellschaft, priority 2021, dated 2025)
